Results as given in ChEMBL document CHEMBL5724696, “Autophagy assay results for EUbOPEN Chemogenomics Library” (2024).
Values joined by “and” are separate entries in the source; they are usually repeats but may differ in a detail not shown here. Equal entries are not always repeated.

Experiments:
Assay type in all cases: functional, Homo sapiens
U2OS [1] = experiment: (§1) Here: values are normalized to the negative (DMSO; defined as 0% autophagy induction) and positive (250nM Torin1; mTOR inhibitor; defined as maximal inducer of autophagy = 100%) control compounds and represented as % of autophagy induction. […] The impact of autophagy induction on cells is complex and depends on the affected target. As such, the magnitude of a phenotype may not be equally mirrored in the %-value of autophagy induction and vice versa. The dynamics of the induction may indicate the mode of activation: e.g. activation via phosphorylation or a signaling cascade may occur fast, while activation via transcription factors may take considerably longer. […] Of note, treatment concentrations may be sub-optimal for specific compounds, leading to false negative annotations.; conditions: Culturing Media DMEM, 1 % Penicillin/Streptomycin, 10% Fetal bovin serum Add-On: No, Screening Media Control DMEM, Screening Media Samples DMEM
TERT-RPE1 = experiment: as §1; conditions: Culturing Media DMEM/F12 (1:1), 1 % Penicillin/Streptomycin, 10% Fetal bovin serum Add-On: No, Screening Media Control DMEM/F12 (1:1), Screening Media Samples DMEM/F12 (1:1)
U2OS [2] = experiment: as §1; conditions: Culturing Media DMEM, 1 % Penicillin/Streptomycin, 10% Fetal bovin serum Add-On: No, Screening Media Control DMEM, Screening Media Samples DMEM; remark: listed apart in the source
[3] = Compound Concentration 0.5 uM, Timepoint 12 hours
[4] = Compound Concentration 0.5 uM, Timepoint 24 hours
[5] = Compound Concentration 0.5 uM, Timepoint 36 hours
[6] = Compound Concentration 0.5 uM, Timepoint 60 hours
[7] = Compound Concentration 2 uM, Timepoint 12 hours
[8] = Compound Concentration 2 uM, Timepoint 24 hours
[9] = Compound Concentration 2 uM, Timepoint 36 hours
[10] = Compound Concentration 2 uM, Timepoint 60 hours
[11] = Compound Concentration 10 uM, Timepoint 12 hours
[12] = Compound Concentration 10 uM, Timepoint 24 hours
[13] = Compound Concentration 10 uM, Timepoint 36 hours
[14] = Compound Concentration 10 uM, Timepoint 60 hours
[15] = Compound Concentration 0.5 uM, Timepoint 12 hours, 12 h, 0.5 µM
[16] = Compound Concentration 0.5 uM, Timepoint 24 hours, 24 h, 0.5 µM
[17] = Compound Concentration 0.5 uM, Timepoint 36 hours, 36 h, 0.5 µM
[18] = Compound Concentration 0.5 uM, Timepoint 60 hours, 60 h, 0.5 µM
[19] = Compound Concentration 2 uM, Timepoint 12 hours, 12 h, 2 µM
[20] = Compound Concentration 2 uM, Timepoint 24 hours, 24 h, 2 µM
[21] = Compound Concentration 2 uM, Timepoint 36 hours, 36 h, 2 µM
[22] = Compound Concentration 2 uM, Timepoint 60 hours, 60 h, 2 µM
[23] = Compound Concentration 10 uM, Timepoint 12 hours, 12 h, 10 µM
[24] = Compound Concentration 10 uM, Timepoint 24 hours, 24 h, 10 µM
[25] = Compound Concentration 10 uM, Timepoint 36 hours, 36 h, 10 µM

Q: Which results are given for `FC(F)(F)c1cccc(-c2noc(-c3cc(-c4ccccc4)c(C(F)(F)F)s3)n2)c1`?
A: autophagy induction (U2OS [1]; [3]): 9.021%; autophagy induction (U2OS [1]; [4]): 3.382%; autophagy induction (U2OS [1]; [5]): -0.06707%; autophagy induction (U2OS [1]; [6]): -12.3398%; autophagy induction (U2OS [1]; [7]): 0.8817%; autophagy induction (U2OS [1]; [8]): -10.2337%; autophagy induction (U2OS [1]; [9]): -8.601%; autophagy induction (U2OS [1]; [10]): -22.9781%; autophagy induction (U2OS [1]; [11]): -28.6388%; autophagy induction (U2OS [1]; [12]): -12.6195%; autophagy induction (U2OS [1]; [13]): -3.849%; autophagy induction (U2OS [1]; [14]): -3.37%; autophagy induction (TERT-RPE1; [15]): 1.977% and -3.815%; autophagy induction (TERT-RPE1; [16]): 1.344% and -4.458%; autophagy induction (TERT-RPE1; [17]): 0.88% and -7.47%; autophagy induction (TERT-RPE1; [18]): -0.5412% and -7.068%; autophagy induction (TERT-RPE1; [19]): 8.025% and -0.7273%; autophagy induction (TERT-RPE1; [20]): 4.894% and -1.63%; autophagy induction (TERT-RPE1; [21]): 2.202% and -4.099%; autophagy induction (TERT-RPE1; [22]): 3.847% and -8.453%; autophagy induction (TERT-RPE1; [23]): -16.4913% and 2.616%; autophagy induction (TERT-RPE1; [24]): -1.867% and 1.296%; autophagy induction (TERT-RPE1; [25]): 1.745% and 2.594%; autophagy induction (U2OS [2]; [3]): -1.1495%; autophagy induction (U2OS [2]; [4]): -3.455%; autophagy induction (U2OS [2]; [5]): -61.0771%; autophagy induction (U2OS [2]; [6]): -1.369%; autophagy induction (U2OS [2]; [7]): -1.566%; autophagy induction (U2OS [2]; [8]): -3.4743%; autophagy induction (U2OS [2]; [9]): -60.4788%; autophagy induction (U2OS [2]; [10]): -1.735%; autophagy induction (U2OS [2]; [11]): -17.6781%; autophagy induction (U2OS [2]; [12]): -7.308%; autophagy induction (U2OS [2]; [13]): -61.2616%; autophagy induction (U2OS [2]; [14]): -2.196%

Q: Which results are given for `CCCCC#Cc1nc(NC)c2ncn([C@@H]3O[C@H](CO)[C@@H](O)[C@H]3O)c2n1`?
A: autophagy induction (U2OS [1]; [3]): 1.872%; autophagy induction (U2OS [1]; [4]): -1.476%; autophagy induction (U2OS [1]; [5]): -3.077%; autophagy induction (U2OS [1]; [6]): -6.595%; autophagy induction (U2OS [1]; [7]): -4.8354%; autophagy induction (U2OS [1]; [8]): -5.442%; autophagy induction (U2OS [1]; [9]): -4.18%; autophagy induction (U2OS [1]; [10]): -14.3215%; autophagy induction (U2OS [1]; [11]): -0.5241%; autophagy induction (U2OS [1]; [12]): -0.2798%; autophagy induction (U2OS [1]; [13]): -5.149%; autophagy induction (U2OS [1]; [14]): -3.023%; autophagy induction (TERT-RPE1; [15]): -2.336% and -0.4442%; autophagy induction (TERT-RPE1; [16]): -5.778% and -2.388%; autophagy induction (TERT-RPE1; [17]): -6.915% and -5.4%; autophagy induction (TERT-RPE1; [18]): -6.339% and -4.703%; autophagy induction (TERT-RPE1; [19]): 2.252% and 1.572%; autophagy induction (TERT-RPE1; [20]): 3.405% and -0.3092%; autophagy induction (TERT-RPE1; [21]): 0.8288% and 0.6571%; autophagy induction (TERT-RPE1; [22]): 0.7882% and 0.00413%; autophagy induction (TERT-RPE1; [23]): 9.462% and -4.43%; autophagy induction (TERT-RPE1; [24]): 9.8196% and -3.782%; autophagy induction (TERT-RPE1; [25]): 10.3694% and -2.886%; autophagy induction (TERT-RPE1; Compound Concentration 10 uM, Timepoint 60 hours, 60 h, 10 µM): 10.0597% and -2.862%; autophagy induction (U2OS [2]; [3]): 7.971%; autophagy induction (U2OS [2]; [4]): 2.814%; autophagy induction (U2OS [2]; [5]): -58.1103%; autophagy induction (U2OS [2]; [6]): -0.9818%; autophagy induction (U2OS [2]; [7]): 3.199%; autophagy induction (U2OS [2]; [8]): -2.198%; autophagy induction (U2OS [2]; [9]): -60.437%; autophagy induction (U2OS [2]; [10]): -1.323%; autophagy induction (U2OS [2]; [11]): 0.2414%; autophagy induction (U2OS [2]; [12]): -3.3271%; autophagy induction (U2OS [2]; [13]): -60.2602%; autophagy induction (U2OS [2]; [14]): -0.5763%
